According to US5019582A, “Piperidine compounds and their preparation and use” (Novo Nordisk A/S, priority 1986, dated 1991):
Converted amounts (≈) assume the structure as drawn. Structures can show the parent of a compound that is named as a salt.

Tested on: voltage operated calcium channels
Assay: inhibition of depolarization-stimulated 45Ca uptake into brain synaptosomes
Format: biochemical, male Wistar rat
Settings: inhibition of K+-stimulated 45Ca uptake, rat cerebral cortex synaptosomes (P2), 15 s incubation
Description: The pharmacological properties of the compounds of the invention can be illustrated by determining their capability to inhibit calcium uptake into brain synaptosomes.
Depolarization of neuronal membranes leads to an opening of socalled `voltage operated calcium channels` (VOC) in the membranes which allows a massive influx of calcium from the extracellular space. A crude synaptosomal preparation (socalled P2 fraction) contains small vesicles surrounded by neuronal membrane and it is possible in such a preparation to study a depolarization-induced opening of VOC.
A male Wistar rat is decapitated and the cerebral cortex removed and homogenized in 20 ml. of ice-cold 0.32 M sucrose using a glass homogenizer with a teflon pestle. All subsequent steps for isolation of synaptosomes are done at 0°-4° C. The homogenate is centrifuged at 1000×g for 10 min and the resulting supernatant is re-centrifuged at 18000×g for 20 min. This pellet (P2) is resuspended in 0.32 M sucrose (10 ml per g of original tissue) with a teflon pestle.
The tubes are pre-incubated for 30 min on ice and then for 6 min at 37° C. in a water bath.
The incubation is continued for 15 s.
The amount of radioactivity on the filter disc is determined by liquid scintillation spectrometry.
Test substances are dissolved in 10 ml of 48% ethanol at a concentration of 0.44 mg/ml. Dilutions are made in 48% ethanol to give final concentrations of 0.1, 0.3, 1, 3 and 0 10 μg/ml. Experiments are performed in duplicate. Controls for depolarized and nondepolarized samples are included in the assay and test substances are only tested in depolarized samples.
The IC50 value is estimated from dose response curves.

SMILES | IC50 [µg/mL]
CCN1CC[C@@H](c2ccc(F)cc2)[C@H](COc2ccc(C(C)(C)C)cc2)C1.Cl (relative stereo) [trans-1-ethyl-4-(4-fluorophenyl)-3-(4-t-butylphenoxymethyl)piperidine hydrochloride] | 2.5
CCCCN1CC[C@@H](c2ccc(F)cc2)[C@H](COc2ccc3c(c2)OCO3)C1 (single isomer, unassigned) | 1.9 (≈ 4.93 µM)
CCCCN1CC[C@@H](c2ccc(F)cc2)[C@H](COc2ccc(OC)cc2)C1 (single isomer, unassigned) | 2.3 (≈ 6.19 µM)
CCCCCN1CC[C@@H](c2ccc(F)cc2)[C@H](COc2ccc3c(c2)OCO3)C1 (single isomer, unassigned) | 1.5 (≈ 3.75 µM)
CCCCCN1CC[C@@H](c2ccccc2)[C@H](COc2ccc3c(c2)OCO3)C1 (single isomer, unassigned) | 2.4 (≈ 6.29 µM)
CCCCCN1CC[C@@H](c2ccc(F)cc2)[C@H](COc2ccc3c(c2)CCCC3)C1 (single isomer, unassigned) | 0.4 (≈ 0.977 µM)
C=CCN1CC[C@@H](c2ccc(F)cc2)[C@H](COc2ccc3c(c2)OCO3)C1 (single isomer, unassigned) [(-)--trans-4-(-4-fluorophenyl)-3-(3,4-methylenedioxyphenoxymethyl)-1-allyl-piperidine hydrochloride] | 0.8
COc1ccc(OC[C@@H]2CN(C(C)C)CC[C@H]2c2ccc(F)cc2)cc1.Cl (single isomer, unassigned) [(-)-trans-1-isopropyl-4-(4-fluorophenyl)-3-(4-methoxyphenoxymethyl)-piperidine hydrochloride] | 4.3
CCCCCCCCN1CC[C@@H](c2ccc(F)cc2)[C@H](COc2ccc3c(c2)OCO3)C1 (single isomer, unassigned) [(-)-trans-4-(-4-fluoropheny1)-3-(3,4-methylenedioxyphenoxymethyl)-1-octylpiperidine hydrochloride] | 2.2

Tested on: peripheral calcium uptake, e.g. in blood vessels and the heart
Assay: not given
Settings: cited from earlier work

SMILES | activity against peripheral calcium uptake
COc1ccc([C@@H]2Sc3ccccc3N(CCN(C)C)C(=O)[C@@H]2OC(C)=O)cc1 [Diltiazem] | have activity
COC(=O)C1=C(C)NC(C)=C(C(=O)OC)C1c1ccccc1[N+](=O)[O-] [Nifedipin] | have activity
COc1ccc(CCN(C)CCCC(C#N)(c2ccc(OC)c(OC)c2)C(C)C)cc1OC (stereo not drawn) [Verapamil] | have activity
